Data: patent US20110054033A1, “METHODS OF USING ABSCISIC ACID FOR AMELIORATING HYPERTENSION AND VASCULAR INFLAMMATION” (Virginia Tech Intellectual Properties, Inc., priority 2009, published 2011)

Key:
MCP-1 = MCP-1 concentrations in plasma by ELISA; type: in vivo, mice; conditions: P=0.10
Experimental: (§1) FIG. 6 are graphs showing that ABA decreases immune cell infiltration in aortas of ApoE−/− mice and reduces pro-inflammatory gene expression. ApoE −/− mice were fed high fat diets created with or without 100 mg/kg diet racemic abscisic acid (ABA). (A) Infiltration of F4/80^+CD11b^+ macrophages and CD4^+ T-cells into the aorta were assessed with flow cytometry. Gene expression in the aorta of pro-inflammatory markers (B) vascular cell adhesion molecule 1 (VCAM-1), (C) monocyte chemoattractant protein 1 (MCP-1), (D) E-selectin, (F) peroxisome proliferator-activated receptor γ (PPAR γ), and (G) CD36 were measured as a ratio to the housekeeping gene β-actin. (H) MCP-1 protein concentrations (pg/mL) were measured by ELISA. Data were analyzed as a completely randomized design.
A Ready-set-go MCP-1 ELISA (ebioscience) was used to quantify plasma MCP-1 according to the manufacturer's instructions.

[1] = tested on: vascular smooth muscle cells and primary human monocytes; conditions: stimulated in culture for 6 hours, Magnone et al., 2009; cited from earlier work
[2] = Body weight and fasted plasma metabolic parameters of ApoE-deficient mice fed high-fat diet with or without ABA; type: in vivo
Experimental: (§2) Five-week old ApoE −/− mice (n=40) were housed at the animal facilities at Virginia Polytechnic Institute and State University in a room maintained at 75° F., with a 12:12 h light-dark cycle starting from 6:00 AM. All experimental procedures were approved by the Institutional Animal Care and Use Committee of Virginia Polytechnic Institute and State University and met or exceeded requirements of the Public Health Service/National Institutes of Health and the Animal Welfare Act. Mice were fed a high saturated fat (AIN-93G-based) diet containing 19.6% fat and 0.2% total cholesterol and obtaining 40.1% of Kcal from fat (4.4 Kcal/g) with or without 100 mg/kg of a racemic ABA mixture (Guri et al., J. Nutr. Biochem. 19:216-28, 2008). Systolic blood pressure was assessed on days 0, 28, 56, and 72. On day 84, fasted mice (12 h) were sacrificed by carbon dioxide asphyxiation and blood was withdrawn through cardiac puncture. Glucose concentrations of whole blood were assessed with an Accu-Chek® Glucometer (Roche, Indianapolis, Ind.) and plasma insulin was measured through insulin ELISA (Millipore, Billerica, Mass.). Aortas were collected for analysis of immune cell infiltration, histological evaluation of atherosclerotic lesions, and gene expression analyses.
Plasma cholesterol and triglyceride levels were measured using kits from Raichem (San Diego, Calif.) adapted for microtiter plate assays. Plasma free fatty acids were measured using the NEFA-HR(2) kit from Wako. Fast performance liquid chromatography (FPLC) separation of plasma lipoproteins was performed on a Superose 6 column using buffer containing 0.15M NaCl, 0.01M Na2HPO4 and 1 mM EDTA at a flow rate of 0.5 ml/min. Forty 0.5 ml fractions were collected and cholesterol was measured in fractions 10-40. Fractions 15-20 contain VLDL, fractions 21-27 contain LDL and fractions 28-34 contain HDL.

[3] = tested on: peroxisome proliferator-activated receptor γ (PPAR γ); assay: Aortic gene expression by real-time RT-PCR: PPAR γ and responsive genes; type: in vivo, mice; conditions: day 84
Experimental: as §1
(§3) Total RNA was isolated from aortas using the RNA isolation Minikit (Qiagen) according to the manufacturer's instructions. […] Each gene amplicon was purified with the MiniElute PCR Purification Kit (Qiagen) and quantitated on an agarose gel by using a DNA mass ladder (Promega). […]
(§4) Complementary DNA (cDNA) concentrations for genes of interest were examined by real-time quantitative PCR using an iCycler IQ System and the iQ SYBR green supermix (Bio-Rad). […] Results are presented as a starting quantity of target cDNA (picograms) per microgram of total RNA. […]

[4] = tested on: vascular cell adhesion molecule 1 (VCAM-1); assay: Aortic gene expression by real-time RT-PCR: VCAM-1; type: in vivo, mice; conditions: P=0.07
Experimental: as §1, §3, §4

ApoE-deficient mice = assay: Blood pressure by non-invasive tail-cuff system; type: in vivo; conditions: for Systolic blood pressure vs control-fed mice: P<0.05
Experimental: FIG. 3 is a graph showing that ABA decreases systolic blood pressure in ApoE (−/−) mice. ApoE −/− mice were fed high fat diets created with (solid line) or without (dashed line) 100 mg/kg diet racemic abscisic acid (ABA). Systolic blood pressure was assessed on days 0, 28, 56, and 72 of dietary treatment. Data were analyzed as a completely randomized design.
as §2
Systolic blood pressure was measured with a computerized non-invasive tail-cuff system (CODA 2 mouse rat blood pressure system; Kent Scientific Corporation, Torrington, Conn.). Conscious animals were kept in a restrainer, with a standard acclimatization time of 10 min and gentle heating of the tail before every recording session. Fifteen recordings, which were preceded by five acclimitization recordings, were performed on each animal during each timepoint.

[5] = ApoE-deficient mice, high-fat diet, 84 days
[6] = fasted plasma, day 84, ABA 100 mg/kg diet, least square mean ± standard error
[7] = fasted plasma, day 84, ABA 100 mg/kg diet, least square mean ± standard error, * P<0.05 vs control
[8] = ABA 100 mg/kg diet, data not shown

For `CC1=CC(=O)CC(C)(C)C1(O)/C=C/C(C)=C\C(=O)O` (racemic) [ABA, abscisic acid], the “Plasma MCP-1 concentrations vs control” value (MCP-1) is listed as “decreased”, the MCP-1 [1] is listed as “increases” and the MMP-9 [1] is listed as “increases”. For the same compound, the “Body Weight” value ([2]; ApoE-deficient mice, high-fat diet with ABA 100 mg/kg, day 84, least square mean ± standard error) was 30.8 ± 0.63 g, the “Effect on body weights vs control diet” value [2, 5] was “no significant effect” and the “Effect on insulin vs control diet” value [2, 5] was “no significant effect”. For the same compound, the “Effect on plasma glucose vs control diet” value [2, 5] was “no significant effect”, the “Effect on plasma non-esterified fatty acid concentration vs control diet” value [2, 5] was “significantly raise” and the “Effect on plasma triglyceride (TG) concentration vs control diet” value [2, 5] was “significantly raise”. For the same compound, the “Effect on total cholesterol levels vs control diet” value [2, 5] was “no significant effect”, the Glucose ([2]; fasted (12 h), day 84, ABA 100 mg/kg diet, least square mean ± standard error) was 194.6 ± 11.9 mg/dL and the Cholesterol [2, 6] was 339.0 ± 25.1 mg/dL. For the same compound, the Insulin [2, 6] was 0.432 ± 0.05 ng/mL, the “NEFAs (non-esterified fatty acids)” value [2, 7] was 2.05 ± 0.17* mequiv./mL and the “TGs (triglycerides)” value [2, 7] was 136.1 ± 12.3* mg/dL. For the same compound, the “HOMA-IR (homeostasis model assessment-insulin resistance)” value ([2]; fasted, day 84, ABA 100 mg/kg diet, least square mean ± standard error) was 4.93 ± 0.76, the “Expression of PPAR γ or its responsive genes in the aorta vs control” value [3] was “no differences” and the “VCAM-1 mRNA expression in the aortic roots vs control” value [4] was “reduced, though not to statistical significance”. For the same compound, the “Diastolic blood pressure vs control-fed mice” value (ApoE-deficient mice; [8]) was “no significant affect”, the “Mean heart rate vs control-fed mice” value (ApoE-deficient mice; [8]) was “no significant affect” and the “Systolic blood pressure vs control-fed mice” value (ApoE-deficient mice; day 56, ABA 100 mg/kg diet) was “significantly reduced”. The “Systolic blood pressure vs control-fed mice” value (ApoE-deficient mice; day 72, ABA 100 mg/kg diet) was “significantly reduced”.
